“Also recorded” adds a separate entry of the source.
Assays:
PR = conditions: De Savi; cited from earlier work
[1] = system: AP activity in ECC-1 cells; assay: Alkaline phosphatase (AP) assay in ECC-1 uterine cells co-treated with 500 pM E2, antagonist mode; type: cell-based, human; conditions: for AP Antagonist Act. (% of E2): ECC-1 cells, co-treated with 500 pM E2
Description: Method for performing the alkaline phosphatase (AP) assay. ECC-1 cells were trypsinized and resuspended in hormone-depleted media and plated at a density of 15k cells per well into a 96-well plate for at least 4 hours. Cells were treated with antiestrogens for 3 days and plates were subsequently frozen at −80° C. […] AP activity was normalized to the activity of E2 alone.

[2] = system: AP activity in ECC-1 cells; assay: Alkaline phosphatase (AP) assay in ECC-1 uterine cells, agonist mode; type: cell-based, human; conditions: for Induction of AP activity in uterine cells (% E2): representative result; for AP Agonist Act. (% of E2): ECC-1 cells, without E2; for Induction of Alkaline Phosphatase (AP) % E2: mean of n experiments
Description: Method for performing the alkaline phosphatase (AP) assay. ECC-1 cells were trypsinized and resuspended in hormone-depleted media and plated at a density of 15k cells per well into a 96-well plate for at least 4 hours. Cells were treated with antiestrogens for 3 days and plates were subsequently frozen at −80° C. Thawed plates were incubated with a chromogenic substrate of AP, p-nitrophenyl phosphate (Thermo Fisher Scientific), for 40 minutes at 40° C. and absorbances were read at 405 nm. AP activity was normalized to the activity of E2 alone. […] A representative result for induction of AP activity in uterine cells (% E2) is shown below in tabular form: […]

ERα [3] = target: T1, ERα (Homo sapiens (Human), UniProt P03372); assay: ERα levels in breast cells, in-cell western (Colorimetric In-Cell ELISA); type: cell-based
Description: IC50's were calculated using the least squares fit method. Error bars represent S.E.M from triplicate wells.
Target sequence in this assay (P03372 whole entry): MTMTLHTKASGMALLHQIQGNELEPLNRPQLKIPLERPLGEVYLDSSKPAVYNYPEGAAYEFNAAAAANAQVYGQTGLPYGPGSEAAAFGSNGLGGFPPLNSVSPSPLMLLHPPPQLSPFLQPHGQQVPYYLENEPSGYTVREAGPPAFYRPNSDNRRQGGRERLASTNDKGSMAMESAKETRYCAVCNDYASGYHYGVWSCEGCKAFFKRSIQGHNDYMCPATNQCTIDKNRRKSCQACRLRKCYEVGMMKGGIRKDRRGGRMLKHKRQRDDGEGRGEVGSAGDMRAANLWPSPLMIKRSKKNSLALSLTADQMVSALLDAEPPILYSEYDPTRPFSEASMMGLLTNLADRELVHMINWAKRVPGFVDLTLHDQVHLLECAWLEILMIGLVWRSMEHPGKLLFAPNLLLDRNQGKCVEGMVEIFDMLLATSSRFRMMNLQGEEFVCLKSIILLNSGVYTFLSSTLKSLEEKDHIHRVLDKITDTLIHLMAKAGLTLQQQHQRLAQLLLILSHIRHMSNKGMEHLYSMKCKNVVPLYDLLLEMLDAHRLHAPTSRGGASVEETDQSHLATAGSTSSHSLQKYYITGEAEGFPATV

ERα [4] = target: T1, ERα; assay: ERα binding, LanthaScreen Competitive Binding Assay (TR-FRET)
Text: Compounds were screened for their ability to displace a fluorescent labelled tracer ERα ligand via time resolved fluorescent energy transfer using the LanthaScreen Competitive Binding Assay screening service (Thermo Fisher Scientific).
Target sequence in this assay (P03372 whole entry, looked up): as the sequence (P03372 whole entry) above

[5] = system: Clone 18 cells (MCF7/Her2/neu); assay: Xenograft study, MCF7/Her2/neu tumors in mice; type: in vivo, athymic ovariectomized nu/nu mice; conditions: oral gavage, doses as low as 10 mg/kg
Description: Xenograft studies were conducted by the Preclinical Therapeutics Core at the University of California, San Francisco in accordance with the Institutional Animal Care and Use Committee (IACUC) guidelines. Clone 18 cells (MCF7/Her2/neu) cells were grown in culture and implanted into athymic ovariectomized nu/nu mice. To stimulate tumor growth 0.36 mg estradiol 90 day release pellets (Innovative Research, Saratoga, FL) were implanted along with cells. When tumors reached 150-250 cubic millimeters the pellets were exchanged for 0.18 mg estradiol 90 day release pellets and divided into groups of six mice per treatment group. One of those groups received vehicle only (0.5% CMC+8% DMSO), and Compound B and Compound C each had 2 groups treated with either 10 or 100 mg/kg compound. Compounds were administered by oral gavage twice daily, except once daily on weekends/holidays for the first 21 days, and once daily after day 21. Tumors and bodyweight were measured twice weekly.

[6] = Pharmacokinetics in mice after oral gavage; type: in vivo, BALB/c female mice; conditions: 5 mg/kg oral gavage; for Oral drug exposure, free fraction taken into account: mice, 0-24 hours
Description: Pharmacokinetics were studied in BALB/c female mice. For each arm, three BALB/c female mice were given 5 mg/kg of compound in 0.5% CMC formulation by oral gavage. Concentration of compounds in mouse plasma and their metabolites were analyzed at each time point using LC-MS/MS. The concentrations were adjusted for the free fraction of drug in mouse plasma (method below). Area under the curve was calculated using the trapezoidal rule for 0-24 hours.

ERα [7] = target: T1, ERα; assay: ER degradation, immunoblot of MCF-7 protein extracts; type: cell-based; conditions: 100 nM, 24 hours
Description: MCF-7 cells were treated with 100 nM anti-estrogen for 24 hours in serum-free medium and protein extracts immunoblotted with D12 antibody to ERα and β-actin (Santa Cruz Biotechnology). The numbers below the blots represent the optical density of ERα bands of each treatment relative to percent vehicle after normalization to β-actin.
Target sequence in this assay (P03372 whole entry): as above

[8] = system: estrogen-responsive reporter gene, ERE-tk109-Luc; assay: Inhibition of E2-induced transcription, ERE-tk109-Luc reporter in MCF-7 cells; type: cell-based; conditions: Homo sapiens, MCF7; read-out: Inhibition of E2-induced transcription in breast cells, IC50
Description: Representative compounds were tested for their inhibitory activity of estrogen according to the assay methods described in Hodges-Gallagher, L., Valentine, C. V., El Bader, S. and Kushner, P. J. (2007) “Histone Deacetylase Inhibitors Enhance the Efficacy of Hormonal Therapy Agents on Breast Cancer Cells and Blocks Anti-estrogen-Driven Uterine Cell Proliferation” Breast Cancer Res Treat, November; 105(3):297-309. Specifically, MCF-7 cells were transiently transfected with an estrogen-responsive reporter gene, ERE-tk109-Luc. Transfected cells were treated with antiestrogens in hormone-depleted medium in the presence of 100 pM 17β-estradiol (E2) for 22 hours. Luciferase activity was normalized to activity of E2 alone and IC50's were calculated using the least squares fit method.
A representative result for inhibition of E2-induced transcription in breast cells (nM) is shown below in tabular form: […]

[9] = 100 nM dose, mean of n experiments

Structure (SMILES): C[C@@H]1Cc2c([nH]c3ccccc23)[C@@H](c2ccc(/C=C/C(=O)O)cc2)N1CC(C)(C)F [WO 2014/191726 Example 2]
- PR agonist pIC50 (PR): <5.5

Structure (SMILES): Oc1ccc2c(c1)CC[C@H](c1ccccc1)[C@@H]2c1ccc(OCCN2CCCC2)cc1 [Lasofoxifene, reference compound]
- Residual AP activity with 100 nM compound plus E2 (% of E2 alone) ([1]; 100 nM antiestrogen, 500 pM E2): 83 % E2
- Induction of AP activity in uterine cells (% E2) [2]: 86 % E2

Structure (SMILES): C[C@@H]1Cc2c([nH]c3ccccc23)[C@@H](c2ccc(OCCN3CC(CF)C3)cc2)N1CC(C)(C)F [Compound C, (1R,3R)-2-(2-fluoro-2-methylpropyl)-1-(4-(2-(3-(fluoromethyl)azetidin-1-yl)ethoxy)phenyl)-3-methyl-2,3,4,9-tetrahydro-1H-pyrido[3,4-b]indole]
- Residual AP activity with 100 nM compound plus E2 (% of E2 alone) ([1]; 100 nM antiestrogen, 500 pM E2): 2.5 % E2
- Residual AP activity with 100 nM compound plus E2 (% of E2 alone) [1, 9]: 1.76 % E2
- AP Antagonist Act. (% of E2) [1]: 2.5 % of E2
- AP Agonist Act. (% of E2) [2]: 3.1 % of E2
- Induction of Alkaline Phosphatase (AP) % E2 [2]: 1.71 % E2
- Induction of AP activity in uterine cells (% E2) [2]: 3.1 % E2
- Relative change in ERα levels in breast cells % Veh (ERα [3]): 42 % Veh
- Relative change in ERα levels in breast cells pIC50 (ERα [3]): 8.87
- ERα binding activity in words (ERα [4]): comparable activity to fulvestrant, Goodacre Compound 102, and Goodacre Compound 107
- Effect on tumor size in xenografted mice [5]: outstandingly potent in shrinking human breast cancer xenografts
- Oral drug exposure, free fraction taken into account [6]: substantially higher oral drug exposure

Structure (SMILES): C[C@]12CC[C@@H]3c4ccc(O)cc4C[C@@H](CCCCCCCCC[S+]([O-])CCCC(F)(F)C(F)(F)F)[C@H]3[C@@H]1CC[C@@H]2O (stereo partly shown) [Fulvestrant, reference compound]
- Residual AP activity with 100 nM compound plus E2 (% of E2 alone) ([1]; 100 nM antiestrogen, 500 pM E2): −2.2 % E2
- Residual AP activity with 100 nM compound plus E2 (% of E2 alone) [1, 9]: −0.09 % E2
- Induction of Alkaline Phosphatase (AP) % E2 [2]: −0.04 % E2
- Induction of AP activity in uterine cells (% E2) [2]: −0.13 % E2

Structure (SMILES): CCCN1CC(Oc2ccc([C@@H]3c4[nH]c5ccccc5c4C[C@@H](C)N3CC(C)(C)F)cc2)C1 [Compound B, (1R,3R)-2-(2-fluoro-2-methylpropyl)-3-methyl-1-(4-((1-propylazetidin-3-yl)oxy)phenyl)-2,3,4,9-tetrahydro-1H-pyrido[3,4-b]indole]
- Residual AP activity with 100 nM compound plus E2 (% of E2 alone) ([1]; 100 nM antiestrogen, 500 pM E2): 1.96 % E2
- Residual AP activity with 100 nM compound plus E2 (% of E2 alone) [1, 9]: 1.56 % E2
- AP Antagonist Act. (% of E2) [1]: 1.96 % of E2
- AP activity of ECC-1 cells co-treated with 500 pM 17β-estradiol, % of the activity 17β-estradiol would produce ([1]; co-treated with 500 pM 17β-estradiol): 1.96%
- Estrogen receptor degradation in MCF-7 cells (immunoblot, FIG. 7) (ERα [7]): degrades the estrogen receptor
- AP Agonist Act. (% of E2) [2]: 2.18 % of E2
- AP activity of ECC-1 cells normalized to the effect of 500 pM 17β-estradiol ([2]; compound alone): 2.18%
- Induction of Alkaline Phosphatase (AP) % E2 [2]: 1.78 % E2
- Induction of AP activity in uterine cells (% E2) [2]: 2.18 % E2
- Relative change in ERα levels in breast cells % Veh (ERα [3]): 45 % Veh
- Relative change in ERα levels in breast cells pIC50 (ERα [3]): 8.57
- Estrogen receptor degradation in MCF-7 cells (in-cell western, FIG. 2) (ERα [3]; 24 hours): degrades the estrogen receptor
- ERα binding activity in words (ERα [4]): comparable activity to fulvestrant, Goodacre Compound 102, and Goodacre Compound 107
- ERα binding pIC50 (ERα [4]): 8.57
- Effect on tumor size in xenografted mice [5]: shrinks MCF-7 (HER2/neu) tumors; also recorded: outstandingly potent in shrinking human breast cancer xenografts
- Oral bioavailability and half-life ([6]; BALB/c mice): high oral bioavailability and half-life
- Oral drug exposure, free fraction taken into account [6]: better 24 hour drug exposure compared to other compounds; also recorded: substantially higher oral drug exposure

Structure (SMILES): CCCN1CC(Oc2ccc([C@@H]3c4[nH]c5ccccc5c4C[C@@H](C)N3CC(C)(C)F)cc2F)C1 [Compound A, (1R,3R)-2-(2-fluoro-2-methylpropyl)-1-(3-fluoro-4-((1-propylazetidin-3-yl)oxy)phenyl)-3-methyl-2,3,4,9-tetrahydro-1H-pyrido[3,4-b]indole]
- Residual AP activity with 100 nM compound plus E2 (% of E2 alone) ([1]; 100 nM antiestrogen, 500 pM E2): 3.15 % E2
- AP Antagonist Act. (% of E2) [1]: 3.15 % of E2
- AP Agonist Act. (% of E2) [2]: 3.96 % of E2
- Induction of AP activity in uterine cells (% E2) [2]: 3.96 % E2

Structure (SMILES): C[C@@H]1Cc2c([nH]c3ccccc23)[C@@H](c2c(F)cc(OCCN3CC(CF)C3)cc2F)N1CC(C)(C)F [Compound D, (1R,3R)-1-(2,6-difluoro-4-(2-(3-(fluoromethyl)azetidin-1-yl)ethoxy)phenyl)-2-(2-fluoro-2-methylpropyl)-3-methyl-2,3,4,9-tetrahydro-1H-pyrido[3,4-b]indole, reference compound]
- Residual AP activity with 100 nM compound plus E2 (% of E2 alone) ([1]; 100 nM antiestrogen, 500 pM E2): 4.07 % E2
- Residual AP activity with 100 nM compound plus E2 (% of E2 alone) [1, 9]: 3.98 % E2
- AP Antagonist Act. (% of E2) [1]: 4.07 % of E2
- AP Agonist Act. (% of E2) [2]: 3.37 % of E2
- Induction of Alkaline Phosphatase (AP) % E2 [2]: 4.45 % E2
- Induction of AP activity in uterine cells (% E2) [2]: 3.37 % E2

Structure (SMILES): C[C@@H]1Cc2c([nH]c3ccccc23)[C@@H](c2c(F)cc(/C=C/C(=O)O)cc2F)N1CC(C)(C)F [AZD9496, (E)-3-(3,5-Difluoro-4-((1R,3R)-2-(2-fluoro-2-methylpropyl)-3-methyl-2,3,4,9-tetrahydro-1H-pyrido[3,4-b]indol-1-yl)phenyl)acrylic Acid]
- Estrogen-like activity as AP agonist and antagonist in comparison to Compounds A-D ([2]; AP agonist and antagonist modes): approximately 10 fold
- AP Agonist Act. (% of E2) [2]: 35 % of E2
- Induction of Alkaline Phosphatase (AP) % E2 [2]: 39 % E2
- Induction of AP activity in uterine cells (% E2) [2]: 35 % E2
- IC50 [8]: 1.3 nM

Structure (SMILES): CCCN1CC(Oc2cc(F)c([C@@H]3c4[nH]c5ccccc5c4C[C@@H](C)N3CC(C)(C)F)c(F)c2)C1 [Goodacre Compound 107, (1R,3R)-1-(2,6-difluoro-4-((1-propylazetidin-3-yl)oxy)phenyl)-2-(2-fluoro-2-methylpropyl)-3-methyl-2,3,4,9-tetrahydro-1H-pyrido[3,4-b]indole, reference compound]
- Residual AP activity with 100 nM compound plus E2 (% of E2 alone) [1, 9]: 1.03 % E2
- Induction of Alkaline Phosphatase (AP) % E2 [2]: 0.00 % E2
